Test results taken from US9579314B2 (priority 2015, dated 2017).

Tests used:
[1] = target: Human M3 receptor (Homo sapiens, UniProt P20309); settings: read-out: M3 binding affinity
[2] = target: Human β2 adrenoceptor (Homo sapiens, UniProt P07550); settings: read-out: B2 binding affinity
Chain of Human β2 adrenoceptor (P07550 whole entry): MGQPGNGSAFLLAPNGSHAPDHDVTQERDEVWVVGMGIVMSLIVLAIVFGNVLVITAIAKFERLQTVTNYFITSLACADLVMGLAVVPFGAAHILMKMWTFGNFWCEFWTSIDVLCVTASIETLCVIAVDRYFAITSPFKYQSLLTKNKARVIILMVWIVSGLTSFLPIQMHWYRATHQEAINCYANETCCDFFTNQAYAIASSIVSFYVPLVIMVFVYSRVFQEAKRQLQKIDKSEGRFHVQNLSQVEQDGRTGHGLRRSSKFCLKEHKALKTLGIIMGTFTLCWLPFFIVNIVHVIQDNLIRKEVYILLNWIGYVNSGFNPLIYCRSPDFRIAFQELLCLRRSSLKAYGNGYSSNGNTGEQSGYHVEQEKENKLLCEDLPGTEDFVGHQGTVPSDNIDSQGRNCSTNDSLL

Chain of Human M3 receptor (P20309 whole entry): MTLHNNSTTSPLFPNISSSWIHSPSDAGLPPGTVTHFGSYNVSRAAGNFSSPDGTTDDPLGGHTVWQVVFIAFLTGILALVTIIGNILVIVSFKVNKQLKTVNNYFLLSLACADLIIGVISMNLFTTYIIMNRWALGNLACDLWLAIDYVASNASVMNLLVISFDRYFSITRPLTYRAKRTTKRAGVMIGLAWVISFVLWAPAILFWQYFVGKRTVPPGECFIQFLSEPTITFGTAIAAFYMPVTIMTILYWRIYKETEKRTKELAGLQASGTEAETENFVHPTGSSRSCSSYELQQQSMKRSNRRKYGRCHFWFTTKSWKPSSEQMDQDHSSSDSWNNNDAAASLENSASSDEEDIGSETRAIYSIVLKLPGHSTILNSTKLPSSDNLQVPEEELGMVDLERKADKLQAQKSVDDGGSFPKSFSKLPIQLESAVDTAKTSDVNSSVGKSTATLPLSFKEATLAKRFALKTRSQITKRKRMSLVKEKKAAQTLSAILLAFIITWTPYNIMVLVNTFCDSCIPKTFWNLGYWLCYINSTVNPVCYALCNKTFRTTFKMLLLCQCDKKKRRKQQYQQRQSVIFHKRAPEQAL

Structure (SMILES) | IC50 [1] [nM] | IC50 [2] [nM]
Cc1ccc(C(O)(C(=O)OCC2CCN(Cc3ccccc3)CC2)c2cccc(OCCCCCNC[C@H](O)c3ccc(O)c4[nH]c(=O)ccc34)c2)cc1 (stereo partly drawn) [Compound 2, (1-benzylpiperidin-4-yl)methyl 2-hydroxy-2-(3-((5-(((R)-2-hydroxy-2-(8-hydroxy-2-oxo-1,2-dihydroquinolin-5-yl)ethyl)amino)pentyl)oxy)phenyl)-2-(p-tolyl)acetate] | 0.3 to 3 | 0.3 to 3
O=C(OCC1CCN(Cc2ccccc2)CC1)C(O)(c1ccc(F)cc1)c1cccc(OCCCCCNC[C@H](O)c2ccc(O)c3[nH]c(=O)ccc23)c1 (stereo partly drawn) [Compound 3, (1-benzylpiperidin-4-yl)methyl 2-(4-fluorophenyl)-2-hydroxy-2-(3-((5-(((R)-2-hydroxy-2-(8-hydroxy-2-oxo-1,2-dihydroquinolin-5-yl)ethyl)amino)pentyl)oxy)phenyl)acetate] | 0.3 to 3 | < 0.3
O=C(OCC1CCN(Cc2ccccc2)CC1)C(O)(c1cccc(F)c1)c1cccc(OCCCCCNC[C@H](O)c2ccc(O)c3[nH]c(=O)ccc23)c1 (stereo partly drawn) [Compound 4, (1-benzylpiperidin-4-yl)methyl 2-(3-fluorophenyl)-2-hydroxy-2-(3-((5-(((R)-2-hydroxy-2-(8-hydroxy-2-oxo-1,2-dihydroquinolin-5-yl)ethyl)amino)pentyl)oxy)phenyl)acetate] | 0.3 to 3 | < 0.3
Cc1cccc(C(O)(C(=O)OCC2CCN(Cc3ccccc3)CC2)c2cccc(OCCCCCNC[C@H](O)c3ccc(O)c4[nH]c(=O)ccc34)c2)c1 (stereo partly drawn) [Compound 5, (1-benzylpiperidin-4-yl)methyl 2-hydroxy-2-(3-((5-(((R)-2-hydroxy-2-(8-hydroxy-2-oxo-1,2-dihydroquinolin-5-yl)ethyl)amino)pentyl)oxy)phenyl)-2-(m-tolyl)acetate] | 0.3 to 3 | 0.3 to 3
O=C(OCC1CCN(Cc2ccccc2)CC1)C(O)(c1cccc(OCCCCCNC[C@H](O)c2ccc(O)c3[nH]c(=O)ccc23)c1)c1ccccc1Cl (stereo partly drawn) [Compound 6, (1-benzylpiperidin-4-yl)methyl 2-(2-chlorophenyl)-2-hydroxy-2-(3-((5-(((R)-2-hydroxy-2-(8-hydroxy-2-oxo-1,2-dihydroquinolin-5-yl)ethyl)amino)pentyl)oxy)phenyl)acetate] | > 3 | < 0.3
Cc1ccccc1C(O)(C(=O)OCC1CCN(Cc2ccccc2)CC1)c1cccc(OCCCCCNC[C@H](O)c2ccc(O)c3[nH]c(=O)ccc23)c1 (stereo partly drawn) [Compound 7, (1-benzylpiperidin-4-yl)methyl 2-hydroxy-2-(3-((5-(((R)-2-hydroxy-2-(8-hydroxy-2-oxo-1,2-dihydroquinolin-5-yl)ethyl)amino)pentyl)oxy)phenyl)-2-(o-tolyl)acetate] | > 3 | 0.3 to 3
CCc1ccccc1C(O)(C(=O)OCC1CCN(Cc2ccccc2)CC1)c1cccc(OCCCCCNC[C@H](O)c2ccc(O)c3[nH]c(=O)ccc23)c1 (stereo partly drawn) [Compound 8, (1-benzylpiperidin-4-yl)methyl 2-(2-ethylphenyl)-2-hydroxy-2-(3-((5-(((R)-2-hydroxy-2-(8-hydroxy-2-oxo-1,2-dihydroquinolin-5-yl)ethyl)amino)pentyl)oxy)phenyl)acetate] | > 3 | 0.3 to 3
O=C(OCC1CCN(Cc2ccccc2)CC1)C(O)(c1cccc(OCCCCCNC[C@H](O)c2ccc(O)c3[nH]c(=O)ccc23)c1)c1cccs1 (stereo partly drawn) [Compound 9, (1-benzylpiperidin-4-yl)methyl 2-hydroxy-2-(3-((5-(((R)-2-hydroxy-2-(8-hydroxy-2-oxo-1,2-dihydroquinolin-5-yl)ethyl)amino)pentyl)oxy)phenyl)-2-(thiophen-2-yl)acetate] | 0.3 to 3 | < 0.3
O=C(OCC1CCN(Cc2ccccc2)CC1)C(O)(c1cccc(OCCCCCNC[C@H](O)c2ccc(O)c3[nH]c(=O)ccc23)c1)C1CCCCC1 (stereo partly drawn) [Compound 10, (1-benzylpiperidin-4-yl)methyl 2-cyclohexyl-2-hydroxy-2-(3-((5-(((R)-2-hydroxy-2-(8-hydroxy-2-oxo-1,2-dihydroquinolin-5-yl)ethyl)amino)pentyl)oxy)phenyl)acetate] | 0.3 to 3 | 0.3 to 3
CCc1cccc(C(O)(C(=O)OCC2CCN(Cc3ccccc3)CC2)c2cccc(OCCCCCNC[C@H](O)c3ccc(O)c4[nH]c(=O)ccc34)c2)c1 (stereo partly drawn) [Compound 11, (1-benzylpiperidin-4-yl)methyl 2-(3-ethylphenyl)-2-hydroxy-2-(3-((5-(((R)-2-hydroxy-2-(8-hydroxy-2-oxo-1,2-dihydroquinolin-5-yl)ethyl)amino)pentyl)oxy)phenyl)acetate] | < 0.3 | < 0.3
O=C(OCC1CCN(Cc2ccccc2)CC1)[C@](O)(c1ccccc1)c1cccc(OCCCCCNC[C@H](O)c2ccc(O)c3[nH]c(=O)ccc23)c1 [Compound 13, (S)-(1-Benzylpiperidin-4-yl)methyl 2-hydroxy-2-(3-((5-(((R)-2-hydroxy-2-(8-hydroxy-2-oxo-1,2-dihydroquinolin-5-yl)ethyl)amino)pentyl)oxy)phenyl)-2-phenylacetate] | < 0.3 | < 0.3
O=C(OCC1CCN(Cc2ccccc2)CC1)[C@@](O)(c1ccccc1)c1cccc(OCCCCCNC[C@H](O)c2ccc(O)c3[nH]c(=O)ccc23)c1 [Compound 14, (R)-(1-benzylpiperidin-4-yl)methyl 2-hydroxy-2-(3-((5-(((R)-2-hydroxy-2-(8-hydroxy-2-oxo-1,2-dihydroquinolin-5-yl)ethyl)amino)pentyl)oxy)phenyl)-2-phenylacetate] | > 3 | < 0.3
CN1CCC(COC(=O)[C@](O)(c2ccccc2)c2cccc(OCCCCCNC[C@H](O)c3ccc(O)c4[nH]c(=O)ccc34)c2)CC1 [Compound 23, (S)-(1-methylpiperidin-4-yl)methyl 2-hydroxy-2-(3-((5-(((R)-2-hydroxy-2-(8-hydroxy-2-oxo-1,2-dihydroquinolin-5-yl)ethyl)amino)pentyl)oxy)phenyl)-2-phenylacetate] | 0.3 to 3 | 0.3 to 3
CN1CCC(COC(=O)[C@@](O)(c2ccccc2)c2cccc(OCCCCCNC[C@H](O)c3ccc(O)c4[nH]c(=O)ccc34)c2)CC1 [Compound 24, (R)-(1-methylpiperidin-4-yl)methyl 2-hydroxy-2-(3-((5-(((R)-2-hydroxy-2-(8-hydroxy-2-oxo-1,2-dihydroquinolin-5-yl)ethyl)amino)pentyl)oxy)phenyl)-2-phenylacetate] | > 3 | < 0.3
O=C(OCC1CCN(Cc2ccccc2)CC1)[C@](O)(c1ccccc1)c1cccc(OCCCCCCCNC[C@H](O)c2ccc(O)c3[nH]c(=O)ccc23)c1 [Compound 28, (S)-(1-benzylpiperidin-4-yl)methyl 2-hydroxy-2-(3-((7-(((R)-2-hydroxy-2-(8-hydroxy-2-oxo-1,2-dihydroquinolin-5-yl)ethyl)amino)heptyl)oxy)phenyl)-2-phenylacetate] | 0.3 to 3 | 0.3 to 3
O=C(c1ccc(CCNC[C@H](O)c2ccc(O)c3[nH]c(=O)ccc23)cc1)N1CCC(COc2cccc([C@](O)(C(=O)OCC3CCN(Cc4ccccc4)CC3)c3ccccc3)c2)CC1 [Compound 31, (S)-(1-Benzylpiperidin-4-yl)methyl 2-hydroxy-2-(3-((1-(4-(2-(((R)-2-hydroxy-2-(8-hydroxy-2-oxo-1,2-dihydroquinolin-5-yl)ethyl)amino)ethyl)benzoyl)piperidin-4-yl)methoxy)phenyl)-2-phenylacetate] | < 0.3 | < 0.3
O=C(NCCCOc1cccc([C@](O)(C(=O)OCC2CCN(Cc3ccccc3)CC2)c2ccccc2)c1)c1ccc(CNC[C@H](O)c2ccc(O)c3[nH]c(=O)ccc23)cc1 [Compound 32, (S)-(1-benzylpiperidin-4-yl)methyl 2-hydroxy-2-(3-(3-(4-((((R)-2-hydroxy-2-(8-hydroxy-2-oxo-1,2-dihydroquinolin-5-yl)ethyl)amino)methyl)benzamido)propoxy)phenyl)-2-phenylacetate] | 0.3 to 3 | < 0.3
COc1cc(C(=O)NCCCOc2cccc([C@](O)(C(=O)OCC3CCN(Cc4ccccc4)CC3)c3ccccc3)c2)ccc1CNC[C@H](O)c1ccc(O)c2[nH]c(=O)ccc12 [Compound 32A, (S)-(1-benzylpiperidin-4-yl)methyl 2-hydroxy-2-(3-(3-(4-((((R)-2-hydroxy-2-(8-hydroxy-2-oxo-1,2-dihydroquinolin-5-yl)ethyl)amino)methyl)-3-methoxybenzamido)propoxy)phenyl)-2-phenylacetate] | 0.3 to 3 | < 0.3
COc1cc(CNC[C@H](O)c2ccc(O)c3[nH]c(=O)ccc23)ccc1C(=O)NCCCOc1cccc([C@](O)(C(=O)OCC2CCN(Cc3ccccc3)CC2)c2ccccc2)c1 [Compound 32B, (S)-(1-benzylpiperidin-4-yl)methyl 2-hydroxy-2-(3-(3-(4-((((R)-2-hydroxy-2-(8-hydroxy-2-oxo-1,2-dihydroquinolin-5-yl)ethyl)amino)methyl)-2-methoxybenzamido)propoxy)phenyl)-2-phenylacetate] | < 0.3 | < 0.3
O=C(NCCCOc1cccc([C@](O)(C(=O)OCC2CCN(Cc3ccccc3)CC2)c2ccccc2)c1)c1ccc(CNC[C@H](O)c2ccc(O)c3[nH]c(=O)ccc23)nc1 [Compound 32C, (S)-(1-benzylpiperidin-4-yl)methyl 2-hydroxy-2-(3-(3-(6-((((R)-2-hydroxy-2-(8-hydroxy-2-oxo-1,2-dihydroquinolin-5-yl)ethyl)amino)methyl)nicotinamido)propoxy)phenyl)-2-phenylacetate] | 0.3 to 3 | < 0.3
CCOc1cc(C(=O)NCCCOc2cccc([C@](O)(C(=O)OCC3CCN(Cc4ccccc4)CC3)c3ccccc3)c2)ccc1CNC[C@H](O)c1ccc(O)c2[nH]c(=O)ccc12 [Compound 32D, (S)-(1-benzylpiperidin-4-yl)methyl 2-(3-(3-(3-ethoxy-4-((((R)-2-hydroxy-2-(8-hydroxy-2-oxo-1,2-dihydroquinolin-5-yl)ethyl)amino)methyl)benzamido)propoxy)phenyl)-2-hydroxy-2-phenylacetate] | 0.3 to 3 | < 0.3
